According to paper PMC8725909, “1,3,4-Oxadiazole-naphthalene hybrids as potential VEGFR-2 inhibitors: design, synthesis, antiproliferative activity, apoptotic effect, and in silico studies” (Journal of Enzyme Inhibition and Medicinal Chemistry, 2021):
Where “and” joins values, the source holds several entries; their conditions need not be identical. Equal values may be shown once. Read-outs that look alike come from different tables or passages of the source.

Assays:
[1] = test system: normal adult liver epithelial cells (THLE-2 cells); experiment: MTT cytotoxicity against normal cells; assay type: cell-based; conditions: Homo sapiens
Procedure: (§1) The MCF-7, HepG2, and THLE-2 cell lines were purchased from the American Type Culture Collection (ATCC, Rockville, MD, USA). MCF-7 and HepG2 cells were grown in a medium that contains Roswell Park Memorial Institute (RPMI) 1640 with L-glutamine, 10% foetal bovine serum (FBS), streptomycin (100 μg/ml) and penicillin (100 U/ml). While THLE-2 cells were cultivated in Bronchial Epithelial Growth Media (BEGM) with 10% FBS, 5 ng/ml EGF, and 70 ng/ml phosphoethanolamine. All cells were maintained in a humidified incubator and 5% (v/v) CO2 atmosphere at 37 °C[60].
(§2) The MCF-7, HepG2, and THLE-2 cells were tested for cytotoxicity using the 3–(4, 5-dimethylthiazol-2-yl)-2,5-diphenyltetrazolium bromide (MTT) assay. The ability of living cells to reduce the yellow product MTT to a blue product, formazan, via a reduction reaction that occurs in the mitochondria is used to assess cell population growth. In this assay, 5000 cells/well were plated in a 96-well plate and allowed to grow for 24 h before being treated with over-mentioned suitable media containing increased concentrations of tested compounds (0, 0.1, 1, 10, 100, and 1000 µM). Each experiment was conducted in triplicate. After removing the media, 100 µL of MTT was added to each well and incubated for 4 h. Following that, 100 µL of dimethyl sulfoxide (DMSO) solution was added to solubilise the resulting formazan product, and absorbance at 570 nm was measured using an ELISA microplate reader (Epoc-2 C micro-plate reader, Bio Tek, VT, USA). The IC50 values [the concentration required to inhibit cell viability by 50%] were calculated.

[2] = test system: MCF-7 (human breast cancer cell line); experiment: MTT cytotoxicity assay, MCF-7; assay type: cell-based
Procedure: (§3) MTT assay was used to assess the cytotoxic activities of the synthesised compounds against MCF-7 (human breast cancer cell line) and HepG2 (human hepatocellular carcinoma cell line).
as §1, §2

[3] = test system: HepG2 (human hepatocellular carcinoma cell line); experiment: MTT cytotoxicity assay, HepG2; assay type: cell-based
Procedure: as §3, §1, §2

VEGFR-2 = VEGFR-2 level in HepG2 cells by ELISA; assay type: cell-based, human; conditions: VEGFR-2 concentration in HepG2 cells after treatment; control 1773 ± 15.01; mean ± SEM of three experiments
Procedure: In vitro VEGFR-2 concentration was evaluated using Enzyme-Linked Immunosorbent Assay (ELISA) kit (Cat. NO. EK0544) (AVIVA System Biology, USA) according to manufacturer instructions.

HepG2 cells [4] = experiment: Cell cycle analysis by flow cytometry (propidium iodide); assay type: cell-based, human; conditions: HepG2, 8.8 µM, 48 h
Procedure: As a control, HepG2 cells were not treated with compound 5.
The effect of compound 5 on the cell cycle phases was investigated using propidium iodide staining and flow cytometric analysis according to the cell cycle kit (PN C03551). Briefly, HepG2 cells were allowed to grow in […], then treated with compound 5 for 48 h. After that, the cells were harvested and cell fixation was performed, cells were centrifuged at 2000 rpm for 5 min then, the supernatant was aspirated. The pellet of fixed cells was resuspended in a 0.5 ml cell cycle kit, vortexed, and incubated at 25 °C for 15 min. Finally, DNA was stained with 50 µg/ml propidium iodide for 30 min. Flow cytometric analysis of cell cycle performed on a COULTER® EPICS® XL™ Flow Cytometer (USA)[67–70].

caspase-3 = experiment: Caspase-3 determination by ELISA; assay type: cell-based, human; conditions: HepG2, 8.8 µM, 24 h
Procedure: To test the effect of the synthesised compounds on caspase-3 levels, the most promising member 5, at a concentration of 8.8 µM, was applied to the most sensitive cells (HepG2) for 24 h.
The effect of compound 5 on the Caspase-3 level was assessed using an ELISA kit (Catalog # KHO1091) according to manufacturer instructions.

HepG2 cells [5] = experiment: Annexin-V/propidium iodide apoptosis assay; assay type: cell-based, human; conditions: HepG2, 8.8 µM, 48 h, mean ± SEM of three experiments
Procedure: The apoptosis induced by compound 5 was quantified using an Annexin-V/propidium iodide (PI) staining assay. Compound 5 was applied to HepG2 cells at a concentration of 8.8 µM.
To assess the effect of compound 5 on cell apoptosis, Annexin V–FITC Kit was used according to the kit protocol (PN IM3546), followed by flow cytometric analysis. In brief, HepG2 cells were allowed to grow in […], after that treated for 48 h. then, washed in phosphate-buffered saline and suspended to 5 × 10^5–5 × 10^6 cells/mL in 1X binding buffer. Then we added to 100 µL of the cell suspensions, 5 µL of dissolved PI, and 1 µL of annexin VFITC solution and incubated in the dark for 15 min. Next to that, we added 400 µL of ice-cold 1X binding buffer and mixed gently. Apoptotic cells were determined by flow cytometric analysis on a COULTER® EPICS® XL™ Flow Cytometer (USA)[67]^,[71]^,[72].

[6] = design: method as in PMID 25895472; conditions: cited from earlier work
[7] = design: method as in PMID 33707933; conditions: 200 mg once daily, patients with advanced solid tumours; cited from earlier work
[8] = MCF7, MTT assay, mean ± SEM of at least three experiments, read-out: IC50 MCF-7
[9] = HepG2, MTT assay, mean ± SEM of at least three experiments, read-out: IC50 HepG2
[10] = THLE-2, normal liver epithelial cells, MTT, mean ± SEM of at least three experiments, read-out: THLE-2 IC50

SMILES | IC50 ([2]; MCF7, read-out: IC50 MCF-7) | IC50 ([3]; HepG2, read-out: IC50 HepG2) | VEGFR-2 (pg/ml) HepG2 (VEGFR-2) | IC50 [2, 8] | IC50 [3, 9] | other results
COc1ccc2cc([C@H](C)c3nnc(SCC(=O)Nc4ccc([N+](=O)[O-])cc4)o3)ccc2c1 [Compound 17, 2-{[5-(1-(6-Methoxynaphthalen-2-yl)ethyl)-1,3,4-oxadiazol-2-yl]thio}-N-(4-nitrophenyl) acetamide] | 10.4 ± 0.82 µM | 9.2 ± 0.76 µM | 1067 pg/mL and 1067 ± 4.91 pg/mL |  |  | IC50 ([1]; THLE-2, read-out: THLE-2 IC50): 22.8 ± 1.22 µM
COc1ccc2cc(C(C)c3nnc(SCC(=O)Nc4c(C)cccc4C)o3)ccc2c1 (stereo not drawn) [Compound 10, N-(2,6-Dimethylphenyl)-2-{[5-(1-(6-methoxynaphthalen-2-yl)ethyl)-1,3,4-oxadiazol-2-yl]thio}acetamide] |  |  |  | 12.5 ± 0.74 µM | 11.8 ± 1.04 µM | 
COc1ccc2cc(C(C)c3nnc(SCC(=O)Nc4c(Cl)cccc4Cl)o3)ccc2c1 (stereo not drawn) [Compound 15, N-(2,6-Dichlorophenyl)-2-{[5-(1-(6-methoxynaphthalen-2-yl)ethyl)-1,3,4-oxadiazol-2-yl]thio}acetamide] |  |  | 864.5 pg/mL and 864.5 ± 5.92 pg/mL | 9.8 ± 0.46 µM | 8.4 ± 0.72 µM | IC50 [1, 10]: 34.9 ± 1.86 µM
COc1ccc2cc(C(C)c3nnc(SCC(=O)Nc4ccc([N+](=O)[O-])cc4O)o3)ccc2c1 (stereo not drawn) [Compound 18, N-(2-Hydroxy-4-nitrophenyl)-2-{[5-(1-(6-methoxynaphthalen-2-yl)ethyl)-1,3,4-oxadiazol-2-yl]thio}acetamide] |  |  | 1004 pg/mL and 1004 ± 5.49 pg/mL | 9.4 ± 0.64 µM | 8.7 ± 0.75 µM | IC50 [1, 10]: 28.6 ± 2.1 µM
COc1ccc2cc([C@H](C)c3nnc(SCC(=O)Nc4ccccc4[N+](=O)[O-])o3)ccc2c1 [Compound 16, 2-{[5-(1-(6-Methoxynaphthalen-2-yl)ethyl)-1,3,4-oxadiazol-2-yl]thio}-N-(2-nitrophenyl) acetamide] | 9.8 ± 0.8 µM | 8.7 ± 0.72 µM | 834.9 pg/mL and 834.9 ± 5.17 pg/mL |  |  | IC50 ([1]; THLE-2, read-out: THLE-2 IC50): 29.7 ± 2.23 µM
COc1ccc2cc(C(C)c3nnc(SCC(=O)NCc4ccccc4)o3)ccc2c1 (stereo not drawn) [Compound 5, N-Benzyl-2-{[5-(1-(6-methoxynaphthalen-2-yl)ethyl)-1,3,4-oxadiazol-2-yl]thio}acetamide] |  |  | 610.4 pg/mL and 610.4 ± 3.46 pg/mL | 9.7 ± 0.75 µM | 8.8 ± 0.69 µM | IC50 [1, 10]: 33.7 ± 1.35 µM; percentage of cells in Pre-G1 phase (HepG2 cells [4]; control 1.76%): 34.12%; percentage of cells in S phase (HepG2 cells [4]; control 27.59%): 42.05%; percentage of cells in G0/G1 phase (HepG2 cells [4]; control 51.31%): 43.91%; increase in the level of caspase-3 compared to control cells (caspase-3): 5.61 fold; Apoptosis (%) (HepG2 cells [5]; control 0.51 ± 0.03): 22.86% and 22.86 ± 1.28 %; Necrosis (%) (HepG2 cells [5]; control 1.25 ± 0.08): 11.26 ± 0.77 %
COc1ccc2cc(C(C)c3nnc(SCC(=O)Nc4ccc(Cl)cc4Cl)o3)ccc2c1 (stereo not drawn) [Compound 14, N-(2,4-Dichlorophenyl)-2-{[5-(1-(6-methoxynaphthalen-2-yl)ethyl)-1,3,4-oxadiazol-2-yl]thio}acetamide] | 11.2 ± 0.69 µM | 10.4 ± 0.81 µM |  |  |  | 
COc1ccc2cc(C(C)c3nnc(SCC(=O)Nc4ccc(Cl)cc4)o3)ccc2c1 (stereo not drawn) [Compound 13, N-(4-Chlorophenyl)-2-{[5-(1-(6-methoxynaphthalen-2-yl)ethyl)-1,3,4-oxadiazol-2-yl]thio}acetamide] | 11.4 ± 0.99 µM | 10.5 ± 0.93 µM |  |  |  | 
CNC(=O)c1cc(Oc2ccc(NC(=O)Nc3ccc(Cl)c(C(F)(F)F)c3)cc2)ccn1 [Sorafenib, reference compound] |  |  |  | 10.8 ± 1.01 µM | 10.2 ± 0.97 µM | IC50 [1, 10]: 27.8 ± 1.74 µM
COc1ccc2cc(C(C)c3nnc(SCC(=O)Nc4ccc(C)cc4)o3)ccc2c1 (stereo not drawn) [Compound 9, 2-{[5-(1-(6-Methoxynaphthalen-2-yl)ethyl)-1,3,4-oxadiazol-2-yl]thio}-N-(p-tolyl)acetamide] | 83.5 ± 7.79 µM | 83.7 ± 6.52 µM |  |  |  | 
COc1ccc2cc(C(C)c3nnc(SCC(=O)Nc4ccccc4)o3)ccc2c1 (stereo not drawn) [Compound 6, 2-{[5-(1-(6-Methoxynaphthalen-2-yl)ethyl)-1,3,4-oxadiazol-2-yl]thio}-N-phenylacetamide] |  |  |  | 13.2 ± 1.12 µM | 12.3 ± 0.87 µM | 
COc1ccc2cc([C@H](C)c3nnc(SCC(=O)Nc4cccc(C)c4)o3)ccc2c1 [Compound 8, 2-{[5-(1-(6-Methoxynaphthalen-2-yl)ethyl)-1,3,4-oxadiazol-2-yl]thio}-N-(m-tolyl) acetamide] |  |  | 583.7 pg/mL and 583.7 ± 1.93 pg/mL | 10.4 ± 0.92 µM | 9.5 ± 0.87 µM | IC50 [1, 10]: 16.7 ± 0.73 µM
COc1ccc2cc(C(C)c3nnc(SCC(=O)NC4CCCCC4)o3)ccc2c1 (stereo not drawn) [Compound 12, N-Cyclohexyl-2-{[5-(1-(6-methoxynaphthalen-2-yl)ethyl)-1,3,4-oxadiazol-2-yl]thio}acetamide] | 25.5 ± 2.02 µM | 24.6 ± 2.81 µM |  |  |  | 
COc1cc2nccc(Oc3ccc(NC(=O)Nc4cc(C)on4)c(Cl)c3)c2cc1OC [Tivozanib] |  |  |  |  |  | half-life [6]: 96 h
COc1cccc(NC(=O)CSc2nnc(C(C)c3ccc4cc(OC)ccc4c3)o2)c1 (stereo not drawn) [Compound 11, 2-{[5-(1-(6-Methoxynaphthalen-2-yl)ethyl)-1,3,4-oxadiazol-2-yl]thio}-N-(3-methoxyphenyl)acetamide] |  |  |  | 11.4 ± 0.81 µM | 10.7 ± 0.58 µM | 
Cc1[nH]c(/C=C2\C(=O)Nc3ccc(F)cc32)c(C)c1C(=O)N[C@H]1CCN(C(=O)N(C)C)C1 [Vorolanib] |  |  |  |  |  | safety profile [7]: acceptable safety profile
COc1ccc2cc(C(C)c3nnc(SCC(=O)Nc4ccccc4C)o3)ccc2c1 (stereo not drawn) [Compound 7, 2-{[5-(1-(6-Methoxynaphthalen-2-yl)ethyl)-1,3,4-oxadiazol-2-yl]thio}-N-(o-tolyl)acetamide] |  |  |  | 13.6 ± 1.09 µM | 12.5 ± 1.09 µM | 
